Reference: the supplement of paper PMC10307832

What was measured:
Assay in all cases: relative viability (nuclei count vs DMSO), 5 days (fraction); higher = more cells survive
IU1-47 = compound: CC1=CC(=C(N1C2=CC=C(C=C2)Cl)C)C(=O)CN3CCCCC3 [IU1-47]
In short: (§1)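 On vehicle-anchored 1536-well plates, lung cancer cell lines held overnight at 37 °C were pinned with five library-drug doses (not always all listed) spaced by √10. With no medium change over 5 days, they were then fixed, permeabilised and Hoechst-stained in one step and imaged at 4×. MetaXpress counted nuclei, and viability is the median across plates of treated-well over vehicle-well nuclei. Acceptance needed control CV below 25% and at least one doubling.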

FG-4592 = compound: Cc1nc(C(=O)NCC(=O)O)c(O)c2ccc(Oc3ccccc3)cc12 [FG-4592]
In short: as §1

IU1-47 + Alpelisib = compound: CC1=CC(=C(N1C2=CC=C(C=C2)Cl)C)C(=O)CN3CCCCC3 [IU1-47] + Cc1nc(NC(=O)N2CCC[C@H]2C(N)=O)sc1-c1ccnc(C(C)(C)C(F)(F)F)c1 [Alpelisib] (partner 2 µM)
In short: (§2)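 After 5 days of treatment, lung cancer cells in 1536-well plates were fixed and stained in a single step (final 0.05% Triton X-100, 1% formaldehyde, 1 ug/ml Hoechst) and their nuclei counted on 4× images. Treatment had been applied by pin tool the day after seeding as one drug alone or as a fixed anchor-drug dose with five library-drug doses (not always all listed) in √10 steps. Relative viability is the nuclei count of treated wells divided by that of vehicle wells, and values are medians of duplicate plates.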

FG-4592 + Pemetrexed = compound: Cc1nc(C(=O)NCC(=O)O)c(O)c2ccc(Oc3ccccc3)cc12 [FG-4592] + Nc1nc2[nH]cc(CCc3ccc(C(=O)N[C@@H](CCC(=O)O)C(=O)O)cc3)c2c(=O)[nH]1 [Pemetrexed] (partner 0.2 µM)
In short: as §2

Row | Cell Line | relative viability (IU1-47; 0.08 µM) | relative viability (IU1-47; 0.253 µM) | relative viability (IU1-47; 0.8 µM) | relative viability (IU1-47; 2.53 µM) | relative viability (IU1-47; 8 µM) | relative viability (FG-4592; 0.08 µM) | relative viability (FG-4592; 0.253 µM) | relative viability (FG-4592; 0.8 µM) | relative viability (FG-4592; 2.53 µM) | relative viability (FG-4592; 8 µM) | relative viability (IU1-47 + Alpelisib; first compound 0.08 µM) | relative viability (IU1-47 + Alpelisib; first compound 0.253 µM) | relative viability (IU1-47 + Alpelisib; first compound 0.8 µM) | relative viability (IU1-47 + Alpelisib; first compound 2.53 µM) | relative viability (IU1-47 + Alpelisib; first compound 8 µM) | relative viability (FG-4592 + Pemetrexed; first compound 0.08 µM) | relative viability (FG-4592 + Pemetrexed; first compound 0.253 µM) | relative viability (FG-4592 + Pemetrexed; first compound 0.8 µM) | relative viability (FG-4592 + Pemetrexed; first compound 8 µM) | relative viability (FG-4592 + Pemetrexed; first compound 2.53 µM)
1 | NCI-H2087 | 1.04 | 1.01 | 1.06 | 0.924 | 1 | 0.98 | 0.988 | 1.32 | 1.01 | 1.13 | 1.23 | 1.01 | 1.15 | 1.21 | 0.909 | 0.604 | 0.565 | 0.658 | 0.591 | 
2 | NCI-H2126 | 1.09 | 1.02 | 1.1 | 0.698 | 0.957 | 0.969 | 0.906 | 0.82 | 0.846 | 0.901 | 0.759 | 0.814 | 0.78 | 0.55 | 0.707 | 0.701 | 0.583 | 0.656 | 0.696 | 0.609
3 | NCI-H2170 | 1.24 | 1.15 | 1.07 | 0.996 | 1.04 | 0.911 | 0.975 | 0.851 | 0.921 | 0.718 | 0.905 | 0.799 | 0.84 | 0.777 | 0.772 | 0.235 | 0.308 | 0.256 | 0.252 | 0.266
4 | NCI-H2228 | 1.04 | 1.14 | 1.06 | 0.986 | 0.709 | 0.905 | 0.868 | 0.899 | 1.02 | 0.644 | 0.904 | 1.06 | 0.687 | 0.796 | 0.451 | 0.368 | 0.302 | 0.434 | 0.32 | 0.331
5 | NCI-H2347 | 1.11 | 1.02 | 1.04 | 0.828 | 1.01 | 0.873 | 0.738 | 0.955 | 0.936 | 1.05 | 0.958 | 1.05 | 1.11 | 1.05 | 1.11 | 0.411 | 0.417 | 0.439 | 0.478 | 0.425
6 | NCI-H2405 | 1.07 | 1.06 | 1.03 | 0.863 | 1.01 | 0.869 | 0.826 | 0.912 | 0.928 | 0.944 | 0.795 | 0.761 | 0.749 |  | 0.768 | 0.81 | 1.01 | 0.949 | 0.984 | 0.792
7 | NCI-H3122 | 1.07 | 1.07 | 1.01 | 1.04 | 0.974 | 1.03 | 0.957 | 1.06 | 1.07 | 1.03 | 0.82 | 1.02 | 0.97 | 0.967 | 0.724 | 0.197 | 0.191 | 0.194 | 0.211 | 0.187
8 | PC-3 [JPC-3] | 1.09 | 1.06 | 1.11 | 0.705 | 0.982 | 1.06 | 0.948 | 0.987 | 1.07 | 1.02 | 1.08 | 0.982 | 1.04 |  | 1.01 | 1.09 | 1.02 |  | 1.05 | 1.19
9 | PC-14 | 1.04 | 1.05 | 1.09 | 0.84 | 0.933 | 1.07 | 0.927 | 0.99 | 0.982 | 0.97 | 1.03 | 0.987 | 1.12 | 1.02 | 0.782 | 0.128 | 0.138 | 0.129 | 0.148 | 0.131
10 | RERF-LC-KJ | 1.06 | 1.04 | 1.14 | 0.902 | 0.946 | 1.03 | 0.922 | 1 | 1.02 | 0.906 | 0.785 | 0.946 | 0.775 | 0.869 | 0.76 | 0.466 | 0.472 | 0.481 | 0.498 | 0.486
11 | SK-LU-1 | 1.14 | 1.17 | 1.05 | 0.98 | 1.06 | 0.882 | 0.748 | 0.898 | 0.899 | 0.879 | 0.8 | 1.22 | 0.943 | 1.31 | 0.807 | 0.949 | 0.842 | 1.05 | 1.05 | 1.06
12 | SK-MES-1 | 1.12 | 1.22 | 1.02 | 1.1 | 1.06 | 0.991 | 0.939 | 0.969 | 0.981 | 0.983 | 0.885 | 0.998 | 1.03 | 0.859 | 0.922 | 0.88 | 0.833 | 0.927 | 0.917 | 0.906
13 | SW 1573 | 1.03 | 1.05 | 0.958 | 0.857 | 0.934 | 0.936 | 0.79 | 0.909 | 0.994 | 0.896 | 0.905 | 0.758 | 0.664 | 0.756 | 0.839 | 0.753 | 0.638 | 0.805 | 0.535 | 0.809
14 | UMC-11 | 1.01 | 0.961 | 1.01 | 0.991 | 0.922 | 0.952 | 0.928 | 0.806 | 1.07 | 0.804 | 1.09 | 1.1 | 1.02 | 1.24 | 0.735 | 0.738 | 0.867 | 0.843 | 0.688 | 0.791
